Legend:
Type in all cases: binding
[1] = molecular target: T1, CbuqPBP1 (Cyrtotrachelus buqueti, UniProt A0A1B3IIF7); test: competitive displacement of 1-NPN fluorescence; details: for IC50: read-out: IC50 (μM) / PBP1; for Ki: read-out: Ki (μM) / PBP1
T1 construct: E. coli BL21(DE3), pET-28a(+); His-tag cut with enterokinase; about 400 bp insert, 16 kDa
T1 sequence (A0A1B3IIF7 17-143): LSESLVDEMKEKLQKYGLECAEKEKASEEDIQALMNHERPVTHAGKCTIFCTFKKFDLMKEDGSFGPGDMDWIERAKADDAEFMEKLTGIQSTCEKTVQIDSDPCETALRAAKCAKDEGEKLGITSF
Text: (§1) competitive displacement of 1-NPN fluorescence on CbuqPBP1

[2] = molecular target: T2, CbuqPBP1 (Cyrtotrachelus buqueti, UniProt A0A1B3IIF7, F69A); test: competitive displacement of 1-NPN fluorescence
T2 construct: E. coli BL21(DE3), pET-28a(+); His-tag cut with enterokinase; about 400 bp insert, 16 kDa
T2 sequence (A0A1B3IIF7 17-143 F69A): T1 sequence (A0A1B3IIF7 17-143)
Text: as §1

[3] = molecular target: T3, CbuqPBP1 (Cyrtotrachelus buqueti, UniProt A0A1B3IIF7, H53A); test: fluorescence titration, Scatchard plot
T3 construct: E. coli BL21(DE3), pET-28a(+); His-tag cut with enterokinase; about 400 bp insert, 16 kDa
T3 sequence (A0A1B3IIF7 17-143 H53A): T1 sequence (A0A1B3IIF7 17-143)

[4] = molecular target: T1, CbuqPBP1; test: fluorescence titration, Scatchard plot
[5] = molecular target: T2, CbuqPBP1; test: fluorescence titration, Scatchard plot

| Compound | IC50 [1] | Ki [1] | IC50 [2] | Ki [2] | Kd [3] | Kd [4] | Kd [5] |
| --- | --- | --- | --- | --- | --- | --- | --- |
| c1ccc2scnc2c1 [benzothiazole] | 13.4 µM | 9.82 µM | 10.5 µM | 7.3 µM |  |  |  |
| c1ccc(Nc2cccc3ccccc23)cc1 [1-NPN] |  |  |  |  | 3.35 µM | 2.73 µM | 2.26 µM |
| C[C@@H]1CC[C@H]2C(C)(C)[C@H]3C[C@@]12CC[C@@]3(C)O [cedrol] | 30 µM | 21.9 µM |  |  |  |  |  |
| CCCCOC(=O)c1ccccc1C(=O)OCCCC [dibutyl phthalate] |  |  | 20 µM | 13.9 µM |  |  |  |

— PMC6796961, “Bioinformatic and biochemical analysis of the key binding sites of the pheromone binding protein of Cyrtotrachelus buqueti Guerin-Meneville (Coleoptera: Curculionidea)” (PeerJ, 2019)
